Experimental data reported in US8236822B2, “Compounds as cannabinoid receptor ligands” (Abbott Laboratories, priority 2009, dated 2012).
Where two headings read alike, the source gives them in different places.

What was measured:
human CB2 receptors = target: T1, human CB2 receptors (Homo sapiens, UniProt P34972); assay: human CB2 radioligand binding assay ([3H]CP-55,940 competition)
T1 construct: expressed in transfected cells; host or cells: HEK293
Description: (§1) In Vitro Methods—CB2 and CB1Radioligand Binding Assays:
(§2) The CB1 and CB2 radioligand binding assays described herein are utilized to ascertain the selectivity of compounds of the present application for binding to CB2 relative to CB′ receptors.
(§3) HEK293 cells stably expressing human CB2 receptors were grown until a confluent monolayer was formed. Briefly, the cells were harvested and homogenized in TE buffer (50 mM Tris-HCl, 1 mM MgCl2, and 1 mM EDTA) using a polytron for 2×10 second bursts in the presence of protease inhibitors, followed by centrifugation at 45,000×g for 20 minutes. The final membrane pellet was re-homogenized in storage buffer (50 mM Tris-HCl, 1 mM MgCl2, and 1 mM EDTA and 10% sucrose) and frozen at −78° C. until used. Saturation binding reactions were initiated by the addition of membrane preparation (protein concentration of 5 μg/well for human CB2) into wells of a deep well plate containing [^3H]CP-55,940 (120 Ci/mmol, a nonselective CB agonist commercially available from Tocris) in assay buffer (50 mM Tris, 2.5 mM EDTA, 5 mM MgCl2, and 0.5 mg/mL fatty acid free BSA, pH 7.4). After 90 min incubation at 30° C., binding reaction was terminated by the addition of 300 μL/well of cold assay buffer followed by rapid vacuum filtration through a UniFilter-96 GF/C filter plates (pre-soaked in 1 mg/mL BSA for 2 hours). The bound activity was counted in a TopCount using Microscint-20. Saturation experiments were conducted with twelve concentrations of [^3H]CP-55,940 ranging from 0.01 to 8 nM. Competition experiments were conducted with 0.5 nM [^3H]CP-55,940 and five concentrations (0.01 nM to 10 μM) of displacing ligands. The addition of 10 μM unlabeled CP-55,940 (Tocris, Ellisville, Mo.) was used to assess nonspecific binding.

rat CB2 receptors = target: T2, rat CB2 receptors (Rattus norvegicus, UniProt Q9QZN9); assay: rat CB2 radioligand binding assay ([3H]CP-55,940 competition)
T2 construct: expressed in transfected cells; host or cells: HEK293
T2 sequence (Q9QZN9 1-360): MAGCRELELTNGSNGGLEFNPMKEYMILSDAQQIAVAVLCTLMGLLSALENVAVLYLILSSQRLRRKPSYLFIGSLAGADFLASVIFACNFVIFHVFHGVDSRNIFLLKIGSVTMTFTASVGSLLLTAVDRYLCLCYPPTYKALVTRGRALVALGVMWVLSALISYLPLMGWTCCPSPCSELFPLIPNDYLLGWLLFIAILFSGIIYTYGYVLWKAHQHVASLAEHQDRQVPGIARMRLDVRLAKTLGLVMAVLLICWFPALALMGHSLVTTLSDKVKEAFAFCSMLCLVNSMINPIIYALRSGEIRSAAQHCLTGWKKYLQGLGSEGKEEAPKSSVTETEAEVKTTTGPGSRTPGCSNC
Description: as §1, §2
as §3, with “expressing rat” for “expressing human”, “of 20” for “of 5”, “for rat” for “for human”, “After 45” for “After 90”, “concentrations of displacing ligands selected from the range of 0.01” for “concentrations (0.01”, “10 μM.” for “10 μM) of displacing ligands.”

T1 sequence (P34972 whole entry): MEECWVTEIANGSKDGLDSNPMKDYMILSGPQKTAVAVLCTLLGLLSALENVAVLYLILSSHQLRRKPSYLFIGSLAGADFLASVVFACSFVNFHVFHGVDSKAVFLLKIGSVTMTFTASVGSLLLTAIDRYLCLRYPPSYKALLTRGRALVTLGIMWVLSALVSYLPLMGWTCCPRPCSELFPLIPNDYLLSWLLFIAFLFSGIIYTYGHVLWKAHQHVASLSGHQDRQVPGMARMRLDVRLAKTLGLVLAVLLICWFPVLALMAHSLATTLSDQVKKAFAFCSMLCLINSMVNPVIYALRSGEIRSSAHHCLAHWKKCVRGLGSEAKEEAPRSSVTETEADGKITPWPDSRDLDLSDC

CCCCn1nc(C(C)(C)C)s/c1=N\C(=O)c1cc(C(F)(F)F)ccc1OC1CN(C(C)(C)C)C1 [Example 3, 2-[(1-tert-butylazetidin-3-yl)oxy]-N-[(2Z)-3-butyl-5-tert-butyl-1,3,4-thiadiazol-2(3H)-ylidene]-5-(trifluoromethyl)benzamide]
Ki (human CB2 receptors): 46.4 nM
Ki (rat CB2 receptors): 29.1 nM

CN1CC[C@H](Oc2ccc(C(F)(F)F)cc2C(=O)/N=c2\cc(C(C)(C)C)n(C)n2CC2CCC2)C1 [Example 6, N-[(3E)-5-tert-butyl-2-(cyclobutylmethyl)-1-methyl-1,2-dihydro-3H-pyrazol-3-ylidene]-2-{[(3S)-1-methylpyrrolidin-3-yl]oxy}-5-(trifluoromethyl)benzamide]
Ki (rat CB2 receptors): 420 nM

Cn1c(C(C)(C)C)c/c(=N\C(=O)c2cc(C(F)(F)F)ccc2OCCNC(C)(C)C)n1CC1CC1 [Example 1, 2-[2-(tert-butylamino)ethoxy]-N-[(3E)-5-tert-butyl-2-(cyclopropylmethyl)-1-methyl-1,2-dihydro-3H-pyrazol-3-ylidene]-5-(trifluoromethyl)benzamide]
Ki (human CB2 receptors): 123 nM
Ki (rat CB2 receptors): 44.2 nM

CCCCn1/c(=N/C(=O)c2cc(C(F)(F)F)ccc2OCCNC(C)(C)C)cc(C(C)(C)C)n1C [Example 4, 2-[2-(tert-butylamino)ethoxy]-N-[(3E)-2-butyl-5-tert-butyl-1-methyl-1,2-dihydro-3H-pyrazol-3-ylidene]-5-(trifluoromethyl)benzamide]
Ki (rat CB2 receptors; HEK293 membranes expressing rat CB2, 0.5 nM [3H]CP-55,940, read-out: rat CB2 binding (Ki)): 104 nM

Cn1c(C(C)(C)C)c/c(=N\C(=O)c2cc(C(F)(F)F)ccc2OC2CN(C(C)(C)C)C2)n1CC1CC1 [Example 2, 2-[(1-tert-butylazetidin-3-yl)oxy]-N-[(3E)-5-tert-butyl-2-(cyclopropylmethyl)-1-methyl-1,2-dihydro-3H-pyrazol-3-ylidene]-5-(trifluoromethyl)benzamide]
Ki (rat CB2 receptors): 459 nM

Cn1c(C(C)(C)C)c/c(=N\C(=O)c2cc(C(F)(F)F)ccc2OCCNC(C)(C)C)n1CC1CCC1 [Example 5, 2-[2-(tert-butylamino)ethoxy]-N-[(3E)-5-tert-butyl-2-(cyclobutylmethyl)-1-methyl-1,2-dihydro-3H-pyrazol-3-ylidene]-5-(trifluoromethyl)benzamide]
Ki (human CB2 receptors): 199 nM
